Columns and labels:
[1] = tested on: Zucker fa/fa rat; test: Plasma parameters after 10 days of daily oral gavage in Zucker fa/fa rats (type 2 diabetes model); assay type: in vivo; conditions: for plasma 3-hydroxybutyrate / plasma non-esterified fatty acids / plasma glucose / plasma insulin / plasma total cholesterol / plasma triacylglycerols: 10 days
Description: A study was carried out using the Zucker fa/fa rat as experimental animal model for type 2 diabetes. In these rats a marked insulin resistance is known; their circulating glucose levels are somewhat higher than in normal rats, but their insulin levels are much higher and show marked hypertriacylglycerolemia and hypercholesterolemia. Four groups of adult Zucker fa/fa rats were used, two groups of 6 male rats each and two groups of 6 female rats each. For each sex, the first group was used as control and the other was treated with the drug. All rats were kept under standard housing conditions, with free access to water and pellet food. The animals received a daily gavage of 0.2 ml of sunflower oil by means of a stomach tube. In the treated-rat groups, the oil contained enough oleoyl-estrone dissolved to provide a daily dose of 10 micromol per kg of rat weight. After 10 days of daily gavages, the rats were killed and their blood was recovered, being used to obtain plasma by centrifugation. Plasma samples were used for the analysis of glucose, total cholesterol and triacylglycerols by means of a dry-strip procedure (Spotchem, Menarini, Firenze, Italy), the levels of 3-hydroxybutyrate were measured with the kit 907979 from Boehringer Mannheim (Mannheim, Germany), and non-esterified fatty acids with the kit 1383175 from the same company. Insulin levels were measured through radioimmunoassay (rat insulin kit, Amersham, Amersham, United Kingdom).

[2] = tested on: lipoprotein lipase; test: Lipoprotein lipase activity in plasma and tissues of treated lean and obese rats; assay type: in vivo, rat; conditions: for Lipoprotein-lipase activity, WAT mesenteric, whole tissue of the rat / Lipoprotein-lipase activity, WAT periovaric, whole tissue of the rat / Lipoprotein-lipase activity, Muscle, whole tissue of the rat: 10 μmol/kg · d; for Lipoprotein-lipase activity, WAT mesenteric, whole tissue of the rat: calculated assuming all WAT had the specific activity of mesenteric WAT; for Lipoprotein-lipase activity, WAT periovaric, whole tissue of the rat: calculated assuming all WAT had the specific activity of periovaric WAT; for Lipoprotein-lipase activity, Liver, per gram of tissue protein / Lipoprotein-lipase activity, Liver, per unit of tissue weight / Lipoprotein-lipase activity, Liver, whole organ of the rat / Lipoprotein-lipase activity, Muscle, per gram of tissue protein / Lipoprotein-lipase activity, Muscle, per unit of tissue weight / Lipoprotein-lipase activity, Plasma / Lipoprotein-lipase activity, Plasma, per gram of protein / Lipoprotein-lipase activity, WAT mesenteric, per gram of tissue protein / Lipoprotein-lipase activity, WAT mesenteric, per unit of tissue weight / Lipoprotein-lipase activity, WAT periovaric, per gram of tissue protein / Lipoprotein-lipase activity, WAT periovaric, per unit of tissue weight / Lipoprotein-lipase activity, Plasma, whole compartment of the rat: daily gavage 10 μmol/kg · d; for Lipoprotein-lipase activity, Plasma, whole compartment of the rat: plasma mass taken as 2.75% of body weight; for overall lipoprotein lipase activity in the rat (muscle + liver + plasma + WAT): rough estimate
Description: Liver, muscle and WAT (white adipose tissue) samples were homogenized in 10 mM hepes buffer pH 7.5, containing 250 mM sucrose, 1 MM-EDTA and 1 mM dithiothreitol in order to measure lipoprotein lipase activity in tissues. Homogenates were clarified by centrifugation (10 min at 10,000×g) at 4° C. The assay mixture (pH 7.5) contained 0.6 mM tri-[9,10(n)-^3H]-oleoyl-glycerol, 50 mM MgCl2, 0.5 g/L albumin (fatty acid-free), 3 ml/L preheated (60 min at 50° C.)rat serum, 25 mM PIPES buffer and 0.02 ml of sample in a final volume of 0.2 ml; the incubation was carried out for 30 min at 25° C.; after the reaction was stopped, the [^3H]-oleate evolved was quantified. All measurements of lipoprotein lipase activity in plasma and liver homogenates were carried out in the presence of anti-rat hepatic lipase antiserum. The homogenate and plasma protein content were determined with the Bradford method.
The enzyme activity was expressed in nkat/L of plasma of nkat/kg of tissue; the values were also referred to plasma or tissue protein content. The overall share of potential activity of the enzymes studied was also estimated by determining the contribution of each organ/tissue: plasma, liver and WAT (white adipose tissue) enzyme activity in relation to body mass. The results are expressed as the total activity found per kg of body weight in a given tissue or compartment. The liver was directly weighed (3.38±0.10% of BW (body weight) for lean and 3.17±0.13% of BW for the obese). The mass of plasma was taken as a 2.75% of body weight (blood being 5% of body weight, and packed cell volume 45% of that value). Overall WAT lipoprotein lipase activity in both groups of animals was calculated using the mean values for either the periovaric or mesenteric locations of both sets of data and the proportions of WAT published for lean [15% of BW] control and oleoyl-estrone-treated [7% of BW] and obese Zucker fa/fa rat [35% BW] control and oleoyl-estrone-treated [28% BW]. Muscle mass was calculated also as a proportion of body weight: 43% for lean and 33 for obese rats.
Statistical analysis of the differences between groups was established using ANOVA programs and the Student's t test.

[3] = tested on: normal-weight adult female Zucker rats (genotype Fa/?); test: Plasma lipoproteinogram (polyacrylamide gel electrophoresis), normal-weight rats; assay type: in vivo, rat; conditions: 10 micromols per kg daily, 10 days
Description: FIG. 1 is a lipoproteinogram of plasma from normal-weight rats (Zucker Fa/?), showing the effect of oleoyl-estrone on lipoprotein distribution. I=intact; C=control; T=treated with oleoyl-estrone; HDL=high-density lipoproteins; LDL=low-density lipoproteins; VLDL=very low-density lipoproteins.
Since treatment with oleoyl-estrone deeply modifies the plasma lipids of rats, an experiment was carried out to determine whether the oral administration of oleoyl-estrone modifies the plasma lipidogram of lean and genetically obese rats. Two groups of animals were used: (1) normal-weight adult female Zucker rats (genotype Fa/?), and (2) genetically obese adult female Zucker rats (genotype fa/fa). In the first group one rat was killed to obtain a sample of blood (intact control); in the second group (obese rats), two intact controls were killed and their blood recovered. […] All blood samples were centrifuged to obtain plasma; plasma proteins were analysed by means of polyacrylamide gel electroforesis (kit Lipofilm, Sebia, Issy les Molineaux, France), lipids were stained with Sudan black.

[4] = Zucker fa/fa rats, oral treatment vs controls
[5] = Zucker fa/fa rats, oral treatment vs controls, P<0.05
[6] = female obese Zucker fa/fa rats, 10 μmol/kg · d oral gavage
[7] = female obese Zucker fa/fa rats, 10 mol/kg · d oral gavage
[8] = male obese Zucker fa/fa rats, 10 μmol/kg · d oral gavage

## CCCCCCCC/C=C\CCCCCCCC(=O)Oc1ccc2c(c1)CC[C@@H]1[C@@H]2CC[C@]2(C)C(=O)CC[C@@H]12 [oleoyl-estrone]
[1]; [4]
  change in 3-hydroxybutyrate: no changes
  change in insulin levels: marked decrease
  change in non-esterified fatty acids: no changes
[1]; [5]
  change in plasma concentration of glucose: significant decreases
  change in plasma concentration of total cholesterol: significant decreases
  change in plasma concentration of triacylglycerols: significant decreases
[1]; [6]
  plasma 3-hydroxybutyrate: 187 ± 26 µM
  plasma non-esterified fatty acids: 642 ± 52 µM
[1]; [7]
  plasma glucose: 4.91 ± 0.17 mM
  plasma insulin: 1.78 ± 0.21 nM
  plasma total cholesterol: 1.59 ± 0.29 mM
  plasma triacylglycerols: 1.80 ± 0.17 mM
[1]; [8]
  plasma 3-hydroxybutyrate: 281 ± 31 µM
  plasma glucose: 6.14 ± 0.13 mM
  plasma insulin: 1.11 ± 0.12 nM
  plasma non-esterified fatty acids: 720 ± 110 µM
  plasma total cholesterol: 1.77 ± 0.26 mM
  plasma triacylglycerols: 1.88 ± 0.19 mM
[2]; lean animals, vs control
  overall loss of lipoprotein lipase because of treatment: 37%
[2]; lean rats, vs controls
  effect on lipoprotein lipase activity in plasma: generalized rise
  effect on lipoprotein lipase activity of the tissues studied: did not affect significantly
[2]; lean rats
  Lipoprotein-lipase activity, WAT mesenteric, whole tissue of the rat: 133 ± 64 nkat/rat
  Lipoprotein-lipase activity, WAT periovaric, whole tissue of the rat: 33.2 ± 5.0 nkat/rat
  Lipoprotein-lipase activity, Liver, per gram of tissue protein: 1.74 ± 0.32 nkat/g P
  Lipoprotein-lipase activity, Liver, per unit of tissue weight: 204 ± 48 pkat/g
  Lipoprotein-lipase activity, Liver, whole organ of the rat: 1.12 ± 0.34 nkat/rat
  Lipoprotein-lipase activity, Muscle, per gram of tissue protein: 3.09 ± 0.57 nkat/g P
  Lipoprotein-lipase activity, Muscle, per unit of tissue weight: 110.3 ± 41.3 pkat/g
  Lipoprotein-lipase activity, Plasma: 11.76 ± 1.75 pkat/mL
  Lipoprotein-lipase activity, Plasma, per gram of protein: 147.8 ± 18.9 pkat/g P
  Lipoprotein-lipase activity, WAT mesenteric, per gram of tissue protein: 779 ± 384 nkat/g P
  Lipoprotein-lipase activity, WAT mesenteric, per unit of tissue weight: 10.25 ± 4.94 nkat/g
  Lipoprotein-lipase activity, WAT periovaric, per gram of tissue protein: 317 ± 111 nkat/g P
  Lipoprotein-lipase activity, WAT periovaric, per unit of tissue weight: 2.56 ± 0.39 nkat/g
  Lipoprotein-lipase activity, Plasma, whole compartment of the rat: 59.2 ± 11.6 pkat/rat
[2]; lean rats, muscle mass calculated as 43% of body weight
  Lipoprotein-lipase activity, Muscle, whole tissue of the rat: 8.79 ± 0.72 nkat/rat
[2]; lean treated rats
  overall lipoprotein lipase activity in the rat (muscle + liver + plasma + WAT): 152 nkat
[2]; lean, vs control
  decrease in mesenteric WAT lipoprotein lipase: 64%
  decrease in periovaric WAT lipoprotein lipase: 45%
[2]; obese animals, vs control
  overall loss of lipoprotein lipase because of treatment: 51%
[2]; obese rats, vs control
  change of lipoprotein lipase activity in skeletal muscle: increased fourfold
[2]; obese rats, vs controls
  effect on lipoprotein lipase activity in WAT: decreases
  effect on lipoprotein lipase activity in liver: no changes
  effect on lipoprotein lipase activity in plasma: increases
[2]; obese rats
  Lipoprotein-lipase activity, WAT mesenteric, whole tissue of the rat: 129 ± 27 nkat/rat
  Lipoprotein-lipase activity, WAT periovaric, whole tissue of the rat: 135 ± 19 nkat/rat
  Lipoprotein-lipase activity, Liver, per gram of tissue protein: 1.41 ± 0.21 nkat/g P
  Lipoprotein-lipase activity, Liver, per unit of tissue weight: 182 ± 27 pkat/g
  Lipoprotein-lipase activity, Liver, whole organ of the rat: 2.48 ± 0.26 nkat/rat
  Lipoprotein-lipase activity, Muscle, per gram of tissue protein: 40.8 ± 4.4 nkat/g P
  Lipoprotein-lipase activity, Muscle, per unit of tissue weight: 1383 ± 168 pkat/g
  Lipoprotein-lipase activity, Plasma: 7.19 ± 1.76 pkat/mL
  Lipoprotein-lipase activity, Plasma, per gram of protein: 107.1 ± 23.6 pkat/g P
  Lipoprotein-lipase activity, WAT mesenteric, per gram of tissue protein: 1767 ± 420 nkat/g P
  Lipoprotein-lipase activity, WAT mesenteric, per unit of tissue weight: 1.40 ± 0.29 nkat/g
  Lipoprotein-lipase activity, WAT periovaric, per gram of tissue protein: 245 ± 51 nkat/g P
  Lipoprotein-lipase activity, WAT periovaric, per unit of tissue weight: 1.46 ± 0.21 nkat/g
  Lipoprotein-lipase activity, Plasma, whole compartment of the rat: 51.4 ± 9.3 pkat/rat
[2]; obese rats, muscle mass calculated as 33% of body weight
  Lipoprotein-lipase activity, Muscle, whole tissue of the rat: 152 ± 18 nkat/rat
[2]; obese treated rats
  overall lipoprotein lipase activity in the rat (muscle + liver + plasma + WAT): 338 nkat
[2]; obese, vs control
  decrease in mesenteric WAT lipoprotein lipase: 87%
  decrease in periovaric WAT lipoprotein lipase: 56%
[3]
  change of VLDLs in lipoproteinogram: marked increase
  change of high density lipoproteins in lipoproteinogram: marked reduction
